Each compound was assayed against T1, recombinant His-tag Y220C p53 DBD protein (Homo sapiens, UniProt P04637, Y220C) (assay: In vitro DNA binding activity assay (TR-FRET): binding of His-tag Y220C p53 DBD to biotin-labeled consensus DNA). Details: SC150 = concentration to increase DNA binding by […], His-tag Y220C p53 DBD, biotin-labeled consensus DNA.
T1 construct: recombinant His-tag Y220C p53 DBD protein (amino acids #˜94-312)
Format: biochemical
`CN1CC[C@H](Nc2cccc3c2cc(-c2noc(CNC(=O)c4ccn(C)c4)n2)n3CC(F)(F)F)[C@H](F)C1` [Compound 182B, N-{[3-(4-{[(3R,4S)-3-fluoro-1-methylpiperidin-4-yl]amino}-1-(2,2,2-trifluoroethyl)-1H-indol-2-yl)-1,2,4-oxadiazol-5-yl]methyl}-1-methyl-1H-pyrrole-3-carboxamide] was tested, and the “Y220C SC150 (μM)” value was “* (* = 0 μM ≤ SC150 < 0.1 μM)”.
With `CCN1CC[C@@H](Nc2cccc3c2cc(-c2noc(CNC(=O)c4ccn(C5CCC(F)(F)C5)c4)n2)n3CC(F)(F)F)[C@@H](F)C1` (stereo partly drawn) [Compound 346B, 1-(3,3-difluorocyclopentyl)-N-{[3-(4-{[(3S,4R)-1-ethyl-3-fluoropiperidin-4-yl]amino}-1-(2,2,2-trifluoroethyl)-1H-indol-2-yl)-1,2,4-oxadiazol-5-yl]methyl}-1H-pyrrole-3-carboxamide] the “Y220C SC150 (μM)” value was “* (* = 0 μM ≤ SC150 < 0.1 μM)”.
`CN1CCC(Nc2cccc3c2cc(-c2nnc(CNc4ccc(S(C)(=O)=O)cc4)s2)n3CC(F)(F)F)CC1` [Compound 24B, 2-(5-{[(4-methanesulfonylphenyl)amino]methyl}-1,3,4-thiadiazol-2-yl)-N-(1-methylpiperidin-4-yl)-1-(2,2,2-trifluoroethyl)-1H-indol-4-amine] was tested, and the “Y220C SC150 (μM)” value was “** (** = 0.1 μM ≤ SC150 < 0.5 μM)”.
With `CC(C)(C)n1cc(C(=O)NCc2nc(-c3cc4c(N[C@@H]5CCCC[C@@H]5F)cccc4n3CC(F)(F)F)no2)cn1` [Compound 331B, 1-tert-butyl-N-{[3-(4-{[(1R,2S)-2-fluorocyclohexyl]amino}-1-(2,2,2-trifluoroethyl)-1H-indol-2-yl)-1,2,4-oxadiazol-5-yl]methyl}-1H-pyrazole-4-carboxamide] the “Y220C SC150 (μM)” value was “* (* = 0 μM ≤ SC150 < 0.1 μM)”.
`CN1CCC(Nc2cccc3c2cc(-c2noc(CNC(=O)[C@@H]4C[C@H]4c4ccccc4)n2)n3CC(F)(F)F)CC1` (racemic) [Compound 156B, (+/−)-(1R,2R)—N-[(3-{4-[(1-methylpiperidin-4-yl)amino]-1-(2,2,2-trifluoroethyl)-1H-indol-2-yl}-1,2,4-oxadiazol-5-yl)methyl]-2-phenylcyclopropane-1-carboxamide] was tested, and the “Y220C SC150 (μM)” value was “* (* = 0 μM ≤ SC150 < 0.1 μM)”.
For `COC(C)(C)c1ccc(C(=O)NCc2nc(-c3cc4c(N[C@H]5CCNC[C@H]5F)cccc4n3CC(F)(F)F)no2)s1` [Compound 479B, N-{[3-(4-{[(3R,4S)-3-fluoropiperidin-4-yl]amino}-1-(2,2,2-trifluoroethyl)-1H-indol-2-yl)-1,2,4-oxadiazol-5-yl]methyl}-5-(2-methoxypropan-2-yl)thiophene-2-carboxamide], the “Y220C SC150 (μM)” value was “* (* = 0 μM ≤ SC150 < 0.1 μM)”.
In the case of `CC(C)(C)n1ccc(C(=O)NCc2nc(-c3cc4c(N[C@H]5CCC(=O)NC5)cccc4n3CC(F)(F)F)no2)c1` [Compound 356B, 1-tert-butyl-N-{[3-(4-{[(3S)-6-oxopiperidin-3-yl]amino}-1-(2,2,2-trifluoroethyl)-1H-indol-2-yl)-1,2,4-oxadiazol-5-yl]methyl}-1H-pyrrole-3-carboxamide], the “Y220C SC150 (μM)” value is reported as “* (* = 0 μM ≤ SC150 < 0.1 μM)”.
With `CN1CCC(Nc2cccc3c2cc(-c2nnc(CNc4ccc(S(C)(=O)=O)cc4)o2)n3CC(F)(F)F)CC1` [Compound 111B, 2-(5-{[(4-methanesulfonylphenyl)amino]methyl}-1,3,4-oxadiazol-2-yl)-N-(1-methylpiperidin-4-yl)-1-(2,2,2-trifluoroethyl)-1H-indol-4-amine] the “Y220C SC150 (μM)” value was “** (** = 0.1 μM ≤ SC150 < 0.5 μM)”.
With `CO[C@H]1CCCC[C@@H]1n1ccc(C(=O)NCc2nc(-c3cc4c(N[C@@H]5CCN(C)C[C@@H]5F)cccc4n3CC(F)(F)F)no2)c1` (relative stereo) [Compound 384B] the “Y220C SC150 (μM)” value was “* (* = 0 μM ≤ SC150 < 0.1 μM)”.
For `CN1CC[C@@H](Nc2cccc3c2cc(-c2noc(CNC(=O)c4cnc(C(C)(C)C)s4)n2)n3CC(F)(F)F)[C@@H](F)C1` [Compound 437B, 2-tert-butyl-N-{[3-(4-{[(3S,4R)-3-fluoro-1-methylpiperidin-4-yl]amino}-1-(2,2,2-trifluoroethyl)-1H-indol-2-yl)-1,2,4-oxadiazol-5-yl]methyl}-1,3-thiazole-5-carboxamide], the “Y220C SC150 (μM)” value was “* (* = 0 μM ≤ SC150 < 0.1 μM)”.
With `CN1CC[C@@H](Nc2cccc3c2cc(-c2noc(CNC(=O)c4ccc(C(C)(C)C)n4C)n2)n3CC(F)(F)F)[C@@H](F)C1` [Compound 542B, 5-tert-butyl-N-{[3-(4-{[(3S,4R)-3-fluoro-1-methylpiperidin-4-yl]amino}-1-(2,2,2-trifluoroethyl)-1H-indol-2-yl)-1,2,4-oxadiazol-5-yl]methyl}-1-methyl-1H-pyrrole-2-carboxamide] the “Y220C SC150 (μM)” value was “* (* = 0 μM ≤ SC150 < 0.1 μM)”.
With `CN1CC[C@@H](Nc2cccc3c2cc(-c2noc(CNC(=O)c4ccn([C@H]5CC[C@@H](N(C)C)C5)c4)n2)n3CC(F)(F)F)[C@@H](F)C1` (stereo in doubt) [Compound 362B, Cis-1-[(1R,3R)-3-(dimethylamino)cyclopentyl]-N-{[3-(4-{[(3S,4R)-3-fluoro-1-methylpiperidin-4-yl]amino}-1-(2,2,2-trifluoroethyl)-1H-indol-2-yl)-1,2,4-oxadiazol-5-yl]methyl}-1H-pyrrole-3-carboxamide] the “Y220C SC150 (μM)” value was “* (* = 0 μM ≤ SC150 < 0.1 μM)”.
`COc1cc(S(C)(=O)=O)ccc1NCc1nc(-c2cc3c(N[C@@H]4CCNC[C@@H]4F)cccc3n2CC(F)(F)F)no1` (racemic) [Compound 188B, (+/−)-N-[(3R,4S)-3-fluoropiperidin-4-yl]-2-(5-{[(4-methanesulfonyl-2-methoxyphenyl)amino]methyl}-1,2,4-oxadiazol-3-yl)-1-(2,2,2-trifluoroethyl)-1H-indol-4-amine] was tested, and the “Y220C SC150 (μM)” value was “* (* = 0 μM ≤ SC150 < 0.1 μM)”.
With `COC1CCCC1n1ccc(C(=O)NCc2nc(-c3cc4c(N[C@@H]5CN(C)CC[C@@H]5F)cccc4n3CC(F)(F)F)no2)c1` (stereo in doubt) [Compound 410B, N-{[3-(4-{[(3R,4S)-4-fluoro-1-methylpiperidin-3-yl]amino}-1-(2,2,2-trifluoroethyl)-1H-indol-2-yl)-1,2,4-oxadiazol-5-yl]methyl}-1-[(1R,2R)-2-methoxycyclopentyl]-1H-pyrrole-3-carboxamide] the “Y220C SC150 (μM)” value was “* (* = 0 μM ≤ SC150 < 0.1 μM)”.
With `CN1CC[C@@H](Nc2cccc3c2cc(-c2noc(CNc4ccc(S(C)(=O)=O)cc4)n2)n3CC(F)(F)F)[C@@H](F)C1` (racemic) [Compound 177B, (+/−)-N-[(3R,4S)-3-fluoro-1-methylpiperidin-4-yl]-2-(5-{[(4-methanesulfonylphenyl)amino]methyl}-1,2,4-oxadiazol-3-yl)-1-(2,2,2-trifluoroethyl)-1H-indol-4-amine] the “Y220C SC150 (μM)” value was “* (* = 0 μM ≤ SC150 < 0.1 μM)”.
`COCC(C)(C)c1cc(C(=O)NCc2nc(-c3cc4c(N[C@@H]5CCN(C)C[C@@H]5F)cccc4n3CC(F)(F)F)no2)cs1` [Compound 485B, N-{[3-(4-{1[(3S,4R)-3-fluoro-1-methylpiperidin-4-yl]amino}-1-(2,2,2-trifluoroethyl)-1H-indol-2-yl)-1,2,4-oxadiazol-5-yl]methyl}-5-(1-methoxy-2-methylpropan-2-yl)thiophene-3-carboxamide] was tested, and the “Y220C SC150 (μM)” value was “* (* = 0 μM ≤ SC150 < 0.1 μM)”.
`CN1CC[C@@H](Nc2cccc3c2cc(-c2noc(CNC(=O)c4cc5ccccn5n4)n2)n3CC(F)(F)F)[C@@H](F)C1` [Compound 216B, N-{[3-(4-{[(3S,4R)-3-fluoro-1-methylpiperidin-4-yl]amino}-1-(2,2,2-trifluoroethyl)-1H-indol-2-yl)-1,2,4-oxadiazol-5-yl]methyl}pyrazolo[1,5-a]pyridine-2-carboxamide] was tested, and the “Y220C SC150 (μM)” value was “* (* = 0 μM ≤ SC150 < 0.1 μM)”.
For `CN1CC[C@H](Nc2cccc3c2cc(-c2nnc(CNC(=O)c4ccccc4)s2)n3CC(F)(F)F)[C@H](F)C1` [Compound 26B, N-{[5-(4-{[(3R,4S)-3-fluoro-1-methylpiperidin-4-yl]amino}-1-(2,2,2-trifluoroethyl)-1H-indol-2-yl)-1,3,4-thiadiazol-2-yl]methyl}benzamide], the “Y220C SC150 (μM)” value was “** (** = 0.1 μM ≤ SC150 < 0.5 μM)”.
`CN1CCC(n2ccc(C(=O)NCc3nc(-c4cc5c(N[C@@H]6CCN(C)C[C@@H]6F)cccc5n4CC(F)(F)F)no3)c2)C1` (some centres unmarked) [Compound 351B] was tested, and the “Y220C SC150 (μM)” value was “* (* = 0 μM ≤ SC150 < 0.1 μM)”.
With `COCC1(n2ccc(C(=O)NCc3nc(-c4cc5c(N[C@@H]6CCN(C)C[C@@H]6F)cccc5n4CC(F)(F)F)no3)c2)CC1` [Compound 426B, N-{[3-(4-{[(3S,4R)-3-fluoro-1-methylpiperidin-4-yl]amino}-1-(2,2,2-trifluoroethyl)-1H-indol-2-yl)-1,2,4-oxadiazol-5-yl]methyl}-1-[1-(methoxymethyl)cyclopropyl]-1H-pyrrole-3-carboxamide] the “Y220C SC150 (μM)” value was “* (* = 0 μM ≤ SC150 < 0.1 μM)”.
`CN1CC[C@H](Nc2cccc3c2cc(-c2nnc(CNC(=O)C4CC4)s2)n3CC(F)(F)F)[C@H](F)C1` [Compound 48B, N-{[5-(4-{[(3R,4S)-3-fluoro-1-methylpiperidin-4-yl]amino}-1-(2,2,2-trifluoroethyl)-1H-indol-2-yl)-1,3,4-thiadiazol-2-yl]methyl}cyclopropanecarboxamide] was tested, and the “Y220C SC150 (μM)” value was “* (* = 0 μM ≤ SC150 < 0.1 μM)”.
With `CC(C)c1nc(C(=O)NCc2nc(-c3cc4c(N[C@@H]5CCN(C)C[C@@H]5F)cccc4n3CC(F)(F)F)no2)cn1C` [Compound 539B, N-{[3-(4-{[(3S,4R)-3-fluoro-1-methylpiperidin-4-yl]amino}-1-(2,2,2-trifluoroethyl)-1H-indol-2-yl)-1,2,4-oxadiazol-5-yl]methyl}-1-methyl-2-(propan-2-yl)-1H-imidazole-4-carboxamide] the “Y220C SC150 (μM)” value was “* (* = 0 μM ≤ SC150 < 0.1 μM)”.

Same assay, conditions: concentration to increase DNA binding by […], incubated at either 27° C. or 29° C. for 60 min
`O=S1(=O)CCC(Nc2cccc3c2cc(-c2ccc(CNc4ccccc4)cc2)n3CC(F)(F)F)CC1` [Compound 9A, 4-[(2-{4-[(phenylamino)methyl]phenyl}-1-(2,2,2-trifluoroethyl)-1H-indol-4-yl)amino]-1λ^6-thiane-1,1-dione] was tested, and the “SC150 (μM)” value was “+++ (+++ = 5 μM ≤ SC150 < 10 μM)”.
